Results taken from PubChem BioAssay (NCI).
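Step 1: Grow cells in 96-well plates. Step 2: Expose to compound for 48 hours at 5 concentrations. Step 3: Interpolate endpoints linearly; if unreached, use highest concentration. The concentration for full growth arrest is given as TGI.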

Assays:
Experiment in all cases: NCI anticancer screen, dose series, 48 h
[1] = tested on: A549 NSCLC
[2] = tested on: T-47D breast
[3] = tested on: OVCAR-8 ovarian
[4] = tested on: CAKI-1 renal
[5] = tested on: NCI/ADR-RES ovarian
[6] = tested on: OVCAR-3 ovarian
[7] = tested on: HCC-2998 colon
[8] = tested on: COLO 205 colon
[9] = tested on: RXF 393 renal
[10] = tested on: SN12C renal
[11] = tested on: SR leukemia
[12] = tested on: KM12 colon
[13] = tested on: OVCAR-5 ovarian
[14] = tested on: EKVX NSCLC
[15] = tested on: CCRF-CEM leukemia
[16] = tested on: SF-268 CNS
[17] = tested on: UACC-62 melanoma
[18] = tested on: SK-MEL-2 melanoma
[19] = tested on: HCT-15 colon
[20] = tested on: MDA-N

Measured: TGI

C[N+](C)([O-])Cc1cccc(NC(=O)c2ccc(C(=O)Nc3cccc(C[N+](C)(C)[O-])c3)cc2)c1
not listed: [20]
> 100 µM: all other assays above

COc1ccc(C2Oc3cc(OC)c(O)cc3[C@@H]2C)cc1 (some centres not stated)
44.2 µM: [15]
96.2 µM: [4]
35.4 µM: [19]
56.6 µM: [3]
not listed: [2] | [5] | [10] | [11] | [17] | [20]
> 100 µM: all other assays above

N#Cc1c(C#N)c(-c2ccco2)n(/N=C/c2ccco2)c1N
66.2 µM: [3]
89.1 µM: [9]
not listed: [20]
> 100 µM: all other assays above

CC1(C)CC(=O)C2=C(C1)OC1=C(CC(C)(C)CC1=O)C2c1ccccc1Cl (configuration not stated)
not listed: [12] | [20]
> 100 µM: all other assays above

COC[C@H](Cc1ccccc1)N=Cc1ccccc1
not listed: [6] | [20]
> 100 µM: all other assays above

Nc1nc(NC(=O)C2=NS(=O)(=O)c3cc(S(N)(=O)=O)c(Cl)cc3N2)n[nH]1
not listed: [2] | [3] | [5] | [18] | [20]
> 100 µM: all other assays above

OB1OCc2ccccc21
54.9 µM: [15]
57.9 µM: [5]
not listed: [7] | [9] | [13] | [14] | [20]
> 100 µM: all other assays above

Clc1ccc(CCn2ccc3ccccc32)c(Cl)c1
not listed: [2] | [20]
> 100 µM: all other assays above

CC(C)(C)OC(=O)N(CCCN)CCCCN(CCCN)C(=O)OC(C)(C)C
not listed: [10] | [20]
> 100 µM: all other assays above

COc1cc(/C=C/C(=O)C(C)(C)C)cc(OC)c1OC
79.1 µM: [9]
52.7 µM: [12]
not listed: [2] | [5] | [20]
> 100 µM: all other assays above

CC(=O)NC(Cc1ccccc1)C(=S)N1CCCC1 (configuration not stated)
not listed: [2] | [5] | [11] | [20]
> 100 µM: all other assays above

Cc1ccc(CCNC(=S)SCC(NC(=O)CCC(N)C(=O)O)C(=O)NCC(=O)O)cc1 (configuration not stated)
6.11 µM: [13]
2.68 µM: [12]
18.6 µM: [14]
3.54 µM: [7]
5.91 µM: [11]
3.72 µM: [19]
1.45 µM: [18]
4.65 µM: [3]
3.08 µM: [17]
6.63 µM: [8]
8.29 µM: [16]
3.44 µM: [4]
3.84 µM: [10]
2.18 µM: [15]
5.27 µM: [6]
2.32 µM: [9]
13.4 µM: [1]

CCN(CC)CC(C(=O)Nc1c(C)cccc1C)/C(C)=N/NC(N)=S (configuration not stated)
not listed: [2] | [4] | [5] | [10] | [11] | [19] | [20]
> 100 µM: all other assays above

COc1cc2c(oc(=O)c3c4oc([Si](C)(C)C)cc4cc(OC)c23)c2cccc(O)c12
not listed: [2] | [5] | [20]
> 100 µM: all other assays above

CCCCCCc1cc2cc(C(=O)Nc3cccc(C(F)(F)F)c3)c(=N)oc2cc1O
7.42 µM: [5]
3.86 µM: [10]
10.7 µM: [6]
6.02 µM: [17]
2.19 µM: [9]
19.1 µM: [16]
1.04 µM: [2]
4.36 µM: [19]
10.3 µM: [12]
69.7 µM: [13]
11.6 µM: [14]
10.9 µM: [1]
3.72 µM: [3]
21 µM: [8]
15.8 µM: [7]
11.5 µM: [4]
4.37 µM: [11]
5.68 µM: [18]

COc1ccccc1C1C(Cl)C(=O)N1NC(=O)Cc1ccccc1 (configuration not stated)
not listed: [2] | [5] | [20]
> 100 µM: all other assays above

N#C/C(=C/NC(=S)Nc1ccc(S(N)(=O)=O)cc1)C(N)=O
not listed: [2] | [5] | [15] | [18]
> 100 µM: all other assays above

CC(C)CCC[C@@H](C)[C@H]1CC[C@H]2[C@@H]3CC=C4CC(OCCCCN(O)CCCSC5OC(CO)C(O)C(O)C5O)CC[C@]4(C)[C@H]3CC[C@]12C (some centres not stated)
92.1 µM: [18]
47.3 µM: [8]
72 µM: [15]
not listed: [2] | [5] | [6] | [7] | [20]
> 100 µM: all other assays above

COc1ccc2[nH]c3c(C)c4ccnc(NCCCN(C)CCCNC(=O)NCCCN(C)CCCNc5nccc6c(C)c7[nH]c8ccc(OC)cc8c7c(C)c56)c4c(C)c3c2c1
2.29 µM: [2]
6.01 µM: [15]
> 10.1 µM: [12]
1.13 µM: [7]
3.25 µM: [16]
> 11.6 µM: [17]
4.07 µM: [18]
1.26 µM: [9]
> 50 µM: [5]
2.56 µM: [14]
3.34 µM: [4]
0.858 µM: [8]
4.13 µM: [13]
2.91 µM: [10]
8.29 µM: [6]
> 17.6 µM: [19]

O=C(CSCC(=O)N/N=C\c1cc(Br)cc(Br)c1O)N/N=C\c1cc(Br)cc(Br)c1O
58.2 µM: [16]
68 µM: [3]
39.7 µM: [17]
42 µM: [11]
42.7 µM: [18]
93.8 µM: [6]
73 µM: [4]
not listed: [7] | [15] | [20]
> 100 µM: all other assays above

C[N+](C)(C)CC(=O)N/N=C(\C(=O)Nc1ccc(Cl)cc1)C1C(=O)N(c2ccccc2)N=C1N (configuration not stated)
not listed: [2] | [5] | [11] | [20]
> 100 µM: all other assays above

O=c1[nH]c2cccccc-2c1-c1nc2ccccc2[nH]1
44.9 µM: [17]
45.6 µM: [9]
45.3 µM: [16]
77.1 µM: [18]
96.7 µM: [3]
not listed: [2] | [5] | [6] | [20]
> 100 µM: all other assays above

O=C(N/N=C/c1cc(-c2ccccc2Cl)c(-c2ccccc2Cl)o1)c1ccncc1
> 100 µM: [1] | [4] | [6] | [8] | [9] | [10] | [13] | [14] | [16] | [17] | [18]

CCCCCCCCCCCCCCCCCc1nc(C#N)c(N)o1
51.8 µM: [3]
33.3 µM: [11]
not listed: [2] | [5] | [6] | [7] | [8] | [9]
> 100 µM: all other assays above

CC1=C2CC3=C(C)C(=O)O[C@H]3C[C@@H](C)[C@@H]2CC1
not listed: [1] | [2] | [9] | [10] | [20]
> 100 µM: all other assays above

Cc1ccc(-c2c(C#N)c(O)n(NS(=O)(=O)c3ccccc3)c(=O)c2C#N)cc1
not listed: [2] | [6] | [11] | [20]
> 100 µM: all other assays above

COC(=O)C1(C(=O)OC)CC2=C(S(=O)(=O)c3ccccc3)C[C@@H](C#N)[C@H]2C1
31.2 µM: [7]
75.6 µM: [6]
not listed: [2] | [9] | [11] | [17]
> 100 µM: all other assays above
